Data on two molecules can be found in publication PMC6978316, “Development of chimeric peptides to facilitate the neutralisation of lipopolysaccharides during bactericidal targeting of multidrug-resistant Escherichia coli” (Communications Biology, 2020).

Where a SMILES comes first, the peptide text is derived from it. Bridges are numbered along the chain shown (N, C = ends).

For one assay, the system named is LPS-induced lung injury. Briefly: Protection of lung tissues from LPS (histology). It counts as in vivo. To be noted: LPS-challenged mice, 0.25 μmol per kg. On the procedure: The mice were treated with N6 (0.25 μmol per kg), A6 (0.25 μmol per kg), G6 (0.25 μmol per kg), and PMB (10 μmol per kg), respectively after the intraperitoneal injection of LPS at a concentration of LD100. The lung tissues were taken at 1 d and 6 d, respectively, washed with PBS and placed in 4% paraformaldehyde for 24 h at 4 °C. After washing with PBS, the tissues were dehydrated by a series of different concentrations of ethanol (75%, 85%, 90%, and 95%) and were immersed in xylene for paraffin embedding. After sectioning, the samples were stained with hematoxylin and were observed by a light microscope. The mice challenged with LPS and PBS served as the negative and blank control, respectively.

Another assay concerns NF-κB p-p65 subunit. In words: Western blotting of lung tissues, p-p65/p65. The note with it: for densitometric analysis of p-p65/p65 ratio: LPS + substance, Mean; for inhibition of LPS-induced translocation of the NF-κB p-p65 subunit: lung tissue 8 h, LPS 13.5 mg per kg, western blotting, densitometry. The class given is in vivo, mice. As for the experimental part:
(§1) Additionally, the mice were sacrificed at 8 h and the lung tissues were homogenized and suspended in […] HEPES buffer for 20 min according to standard procedures. After centrifugation at 4 °C for 20 min (12,000 rpm), the protein levels of supernatants were quantified using a Bradford protein assay kit. A total of 30 μg proteins were analyzed on an 8–12% sodium dodecyl sulfate-polyacrylamide gel electrophoresis (SDS-PAGE) gel and were immunoblotted onto PVDF membranes, followed by an incubation with the primary antibodies of p65, p-p65, extracellular signal-regulated kinase (ERK)1/2, p-ERK1/2, and IκBα overnight at 4 °C. After washing, the blots were incubated with the peroxidase conjugated goat-rabbit or goat-mouse antibodies. Relative protein expression levels were quantified by a densitometric measurement of chemiluminescence (ECL) reaction band. β-actin was used as the internal reference.

For a further assay, the system named is IκBα. Briefly: Western blotting of lung tissues, IκBα/β-actin. The note with it: for densitometric analysis of IκBα/β-actin ratio: LPS + substance, Mean; for effect on LPS-induced IκBα levels: lung tissue 8 h, LPS 13.5 mg per kg, western blotting. It counts as in vivo, mice. On the procedure:
as §1

Assay [1] relates to binding of FITC-labeled LPS to RAW 264.7 cells. Briefly: Binding of FITC-labeled LPS to macrophages (flow cytometry). The class given is cell-based, mouse. The note with it: FITC-LPS 100 μg per ml, 0.1 μM peptide 1 h. As for the experimental part:
Similarly, after an incubation with FITC-labeled LPS and washing with medium, cells were incubated with rhodamine-labeled A6 or G6 (0.1 μM) at 37 °C for 1 h. After washing again, the effects of peptides on the binding of FITC-labeled LPS to the cells were analyzed by CLSM and flow cytometry, respectively.

Another assay has as its system E. coli CVCC195. The class given is cell-based, Escherichia coli. To be noted: E. coli CVCC195. On the procedure: Bacterial resistance against the peptides was assessed via the MIC assays. […] After 16–18 h of incubation at 37 °C, cells from the second highest concentration showing visible growth were used to inoculate the subsequent cultures. The MIC values for drug passage cultures were obtained as described above. This process was repeated for 30 d.

Another assay deals with ERK1/2 phosphorylation. Briefly: Western blotting of lung tissues, p-ERK1/2/ERK1/2. It counts as in vivo, mice. The note with it: for densitometric analysis of p-ERK1/2/ERK1/2 ratio: LPS + substance, Mean; for attenuation of ERK1/2 phosphorylation: lung tissue 8 h, LPS 13.5 mg per kg, western blotting, densitometry. As for the experimental part:
as §1

Another assay concerns binding of LPS to LBP. Briefly: Binding of LPS to LBP on LPS-immobilized plate (ELISA). It counts as biochemical. To be noted: mean of n = 3. As for the experimental part: The 96-well microtiter plates were coated with 4 ng per ml LPS (0.1 M Na2CO3 and 20 mM EDTA, pH 9.6, 50 μl per well) overnight at 4 °C, washed three times with PBST, and blocked with PBS (containing 1% BSA) for 2 h. After washing with PBST again, the plates were incubated at 37 °C for 1 h with different concentrations of peptides (A6, G6, or N6), which were dissolved in Dulbecco's Modified Eagle's (DMEM) medium (containing 10% FBS). After washing, cells were incubated with anti-LBP mAb 6G3 (ThermoFisher) for 1 h at 37 °C and HRP-conjugated rabbit anti-mouse IgG for 1 h at room temperature, respectively. Tetramethylbenzidine (TMB) solution was then added and incubated for 25–30 min. Finally, the reaction was stopped by addition of 0.5 M H2SO4, and the absorbance was measured at 450 nm[50].

Assay [2] deals with TNF-α, IL-6 and IL-10 in LPS-stimulated RAW 264.7 cells. In words: Cytokines in LPS-stimulated macrophages (ELISA). The class given is cell-based, mouse. Details: unit not given here. As for the experimental part:
Macrophages RAW 264.7 were incubated with LPS (0.1 and 1 μg per ml) that was dissolved in serum-free DMEM medium, and then were treated with A6, G6, N6, or PMB (20 μM) alone in 24-well plates (2.5 × 10^5 cells per well). The cells incubated with serum-free DMEM and LPS were used as a control. After treatment for 2 h, the supernatants were collected and assessed for TNF-α, IL-6, and IL-10 by using the ELISA kits in the Jiaxuan Biotech. Co. Ltd. (Beijing, China).
73 Supplementary Figure 15. Effects of SCPs on cytokines in RAW 264.7 ells. Cells were incubated with 0.1 μg per
74 ml (a) or 1 μg per ml (b) LPS and 20 μM A6, G6, N6 or PMB for 2 h. The levels of TNF-α, IL-6 and IL-10 in
75 supernatants were measured using ELISA. The data are given as the mean ± SD (n = 3 independent experiments).
76 Different lower case letters indicate a significant difference between two groups (p < 0.05).
(1 picture or pasted object on this page, not shown here)
For orientation: In an ELISA, binding on a coated surface is turned into a signal by an enzyme label.

Another assay relates to MDR E. coli CVCC195. In words: SEM and TEM, cell morphology and ultrastructure. To be noted: E. coli CVCC195, 4 × MIC, 2 h; at least 200 cells scored; manuscript lines quoted in the peer review file. It counts as cell-based, Escherichia coli. As for the experimental part: SEM was used to examine the ultrastructural changes in bacteria treated with peptides. […] PBS was used as the negative control. After centrifugation, the bacterial precipitation was added with 2.5% glutaraldehyde and the cells were fixed at 4 °C for 24 h. After ethanol dehydration, drying and coating, samples were visualized by a QUANTA200 SEM (FEI, Philips, Netherlands)[65].
The processing and preparation of TEM samples was similar to that of SEM until glutaraldehyde fixation. After washing with PBS, bacterial cells were fixed in 1% […] buffer for 1 h, dehydrated in a series of acetone (50–100%) and embedded, followed by preparation into ultra-thin sections and staining with 1% uranyl acetate. […] At least 200 bacterial cells were visualized and scored for the observed characteristics.

Where [3] appears, read: 0.625 μM, LPS-coated plate, peptide in DMEM + 10% FBS, 37 °C, 1 h, anti-LBP mAb, OD450.
The mark [4] stands for this setting: RAW 264.7 cells incubated with 0.1 μg per ml LPS.
Setting [5] is: RAW 264.7 cells incubated with 1 μg per ml LPS.

As to `CC(C)[C@@H]1NC(=O)CNC(=O)[C@H](CC(N)=O)NC(=O)[C@H](CCCNC(=N)N)NC(=O)[C@H](Cc2ccc(O)cc2)NC(=O)[C@H](C(C)C)NC(=O)[C@@H](NC(=O)[C@@H](NC(=O)[C@H](CC(N)=O)NC(=O)[C@H](Cc2c[nH]c3ccccc23)NC(=O)[C@H](C)NC(=O)[C@H](Cc2ccccc2)NC(=O)CNC(=O)[C@H](CO)NC(=O)CNC(=O)CNC(=O)CNC(=O)CNC(=O)[C@H](CCCCN)NC(=O)[C@H](Cc2ccccc2)NC(=O)[C@H](Cc2ccccc2)NC(=O)[C@H](CO)NC(=O)[C@H](C)NC(=O)[C@H](CCCNC(=N)N)NC(=O)[C@@H](NC(=O)[C@H](CCCCN)NC(=O)[C@H](Cc2c[nH]c3ccccc23)NC(=O)[C@H](CCCNC(=N)N)NC(=O)CNC(=O)[C@H](CCC(N)=O)NC(=O)[C@@H](NC(=O)[C@@H](N)CCCNC(=N)N)C(C)C)C(C)C)C(C)C)CSSC[C@@H](C(=O)N[C@@H](Cc2c[nH]cn2)C(=O)N[C@@H](CCCNC(=N)N)C(=O)N[C@@H](CCCNC(=N)N)C(=O)N[C@@H](C)C(=O)N[C@@H](CC(N)=O)C(=O)O)NC(=O)[C@H](C(C)C)NC(=O)[C@H](CCCNC(=N)N)NC1=O` [G6] (H-RVQGRWKVRASFFKGGGGSGFAWNVCVYRNGVRVCHRRAN-OH; disulfide 26-35), the “lung histology at 1 d” value in the assay with LPS-induced lung injury was “partial alleviation of tissue swelling and injury”. Further, the “lung histology at 6 d” value with LPS-induced lung injury was “no pathological changes”. Moreover, the “densitometric analysis of p-p65/p65 ratio” value in the assay with NF-κB p-p65 subunit is on record as 0.7685. In addition, the “inhibition of LPS-induced translocation of the NF-κB p-p65 subunit” value in the assay with NF-κB p-p65 subunit is given as 25.3%. Besides, the “densitometric analysis of IκBα/β-actin ratio” value in the assay with IκBα turned out to be 0.9933. Further, the “effect on LPS-induced IκBα levels” value with IκBα is “promoted LPS-induced IκBα levels”. Besides, the “inhibition rate of FITC-labeled LPS binding to RAW 264.7 cells” value in assay [1] is 44.3%. In the assay on E. coli CVCC195, the “change of MIC over the course of 30 serial passages” value is recorded as “hardly changed”. The “densitometric analysis of p-ERK1/2/ERK1/2 ratio” value with ERK1/2 phosphorylation worked out at 0.1248. Besides, in the assay with ERK1/2 phosphorylation, the “attenuation of ERK1/2 phosphorylation” value is recorded as 88.2%. Also, the “LPS-LBP binding (relative), Mean” value in the assay with binding of LPS to LBP (setting [3]) amounted to 0.7905; with binding of LPS to LBP (1.25 μM), 0.7506; in the assay with binding of LPS to LBP (2.5 μM) it was 0.344; in the assay on binding of LPS to LBP (5 μM), 0.2387; in the assay on binding of LPS to LBP (10 μM), 0.1958; in the assay with binding of LPS to LBP (20 μM), 0.1311. The “LPS-LBP binding (relative), Mean” value with binding of LPS to LBP (40 μM) came out at 0.1347. Moreover, the “IL-6 Mean” value in assay [2] (setting [4]) turned out to be 280.633; in assay [2] (setting [5]) it was 352.733. In addition, the “IL-10 Mean” value in assay [2] (setting [4]) is recorded as 106.633; in assay [2] (setting [5]), 142.667. Moreover, the “TNFα Mean” value in assay [2] (setting [4]) is reported as 481.5; in [2] (setting [5]), 599.567. For the same molecule, the “abnormal cells in TEM (lysis, non-uniform cytoplasmic electron and morphologically abnormal cells)” value in the assay on MDR E. coli CVCC195 is reported as roughly 50%.

On to “H-RVQGRWKVRASFFKEAAAKEAAAKGFAWNVCVYRNGVRVCHRRAN-OH (disulfide 31-40) [A6]”, for which the “lung histology at 1 d” value with LPS-induced lung injury was “partial alleviation of tissue swelling and injury”. Besides, the “lung histology at 6 d” value in the assay on LPS-induced lung injury is “no pathological changes”. For the same molecule, the “densitometric analysis of p-p65/p65 ratio” value in the assay with NF-κB p-p65 subunit came out at 0.106. Also, the “inhibition of LPS-induced translocation of the NF-κB p-p65 subunit” value with NF-κB p-p65 subunit was 89.7%. In addition, the “densitometric analysis of IκBα/β-actin ratio” value with IκBα is recorded as 1.193. Further, the “effect on LPS-induced IκBα levels” value in the assay with IκBα is on record as “promoted LPS-induced IκBα levels”. Besides, the “inhibition rate of FITC-labeled LPS binding to RAW 264.7 cells” value in assay [1] came out at 33.2%. In addition, the “change of MIC over the course of 30 serial passages” value with E. coli CVCC195 is “hardly changed”. In the assay on ERK1/2 phosphorylation, the “densitometric analysis of p-ERK1/2/ERK1/2 ratio” value was found to be 1.795. In the assay with ERK1/2 phosphorylation, the “attenuation of ERK1/2 phosphorylation” value is “moderately promoted the ERK1/2 phosphorylation”. The “LPS-LBP binding (relative), Mean” value was determined as 0.6863 in the assay with binding of LPS to LBP (setting [3]); 0.4991 with binding of LPS to LBP (1.25 μM); 0.4036 with binding of LPS to LBP (2.5 μM); 0.3236 with binding of LPS to LBP (5 μM); 0.2858 with binding of LPS to LBP (10 μM); 0.2468 with binding of LPS to LBP (20 μM). Further, in the assay on binding of LPS to LBP (40 μM), the “LPS-LBP binding (relative), Mean” value was 0.1705. The figures for the “IL-6 Mean” value in assay [2] (setting [4]) and in assay [2] (setting [5]) were 246.9 and 216.667, respectively. Further, the results for the “IL-10 Mean” value in assay [2] (setting [4]) and in [2] (setting [5]) were 89.8 and 77.3667, respectively. Besides, the “TNFα Mean” value was 410.667 in assay [2] (setting [4]) and 355.9 in [2] (setting [5]). For the same molecule, the “abnormal cells in TEM (lysis, non-uniform cytoplasmic electron and morphologically abnormal cells)” value in the assay on MDR E. coli CVCC195 is reported as “Approximately 75%”.
